According to patent US6900219B2, “ABCA-1 elevating compounds” (CV Therapeutics, Inc., priority 2002, dated 2005):

tested on: ABCA-1 gene; experiment: compounds tested and found to elevate cellular expression of the ABCA-1 gene (Examples 1-6; test not named); format: cell-based
Experimental: Activity testing is conducted as described in those patents and patent applications referenced above, and in the Examples below, and by methods apparent to one skilled in the art.

Compound	cellular expression of the ABCA-1 gene
CC(C)(C)c1ccc(C(=O)Nc2nc(-c3ccc(Cl)cc3)cs2)cc1 [[4-(tert-butyl)phenyl]-N-[4-(4-chlorophenyl)(1,3-thiazol-2-yl)]carboxamide]	elevate cellular expression of the ABCA-1 gene
CC(C)(C)c1ccc(C(=O)N(CCc2ccccn2)Cc2ccccc2[N+](=O)[O-])cc1 [[4-(tert-butyl)phenyl]-N-[(2-nitrophenyl)methyl]-N-(2-(2-pyridyl)ethyl)carboxamide]	elevate cellular expression of the ABCA-1 gene
CC(c1nc2ccccc2c(=O)n1-c1ccc2ccccc2c1)N(CCN(C)C)C(=O)Nc1ccc(F)cc1F (stereo not drawn) [[(2,4-difluorophenyl)amino]-N-[2-(dimethylamino)ethyl]-N-[(3-(2-naphthyl)-4-oxo(3-hydroquinazolin-2-yl))ethyl]carboxamide]	elevate cellular expression of the ABCA-1 gene
CCC(c1nc2ccccc2c(=O)n1-c1ccc(Cl)cc1)N(CCOC)C(=O)Nc1ccc(F)cc1F (stereo not drawn) [[(2,4-difluorophenyl)amino]-N-{[3-(4-chlorophenyl)-4-oxo(3-hydroquinazolin-2-yl)]propyl}-N-(2-methoxyethyl)carboxamide]	elevate cellular expression of the ABCA-1 gene
Cc1cccc(C)c1NC(=O)N(Cc1ccccc1)C(C)c1nc2ccccc2c(=O)n1-c1ccc2ccccc2c1 (stereo not drawn) [[(2,6-dimethylphenyl)amino]-N-[(3-(2-naphthyl)-4-oxo(3-hydroquinazolin-2-yl))ethyl]-N-benzylcarboxamide]	elevate cellular expression of the ABCA-1 gene
Cc1ccccc1NC(=O)N(CC(C)C)C(C)c1nc2ccccc2c(=O)n1-c1ccc2ccccc2c1 (stereo not drawn) [[(2-methylphenyl)amino]-N-(2-methylpropyl)-N-[(3-(2-naphthyl)-4-oxo(3-hydroquinazolin-2-yl))ethyl]carboxamide]	elevate cellular expression of the ABCA-1 gene
CC(C)CN(C(=O)Nc1cccc(Br)c1)C(C)c1nc2ccccc2c(=O)n1-c1ccc2ccccc2c1 (stereo not drawn) [[(3-bromophenyl)amino]-N-(2-methylpropyl)-N-[(3-(2-naphthyl)-4-oxo(3-hydroquinazolin-2-yl))ethyl]carboxamide]	elevate cellular expression of the ABCA-1 gene
CC(C)CN(C(=O)Nc1cccc(Cl)c1)C(C)c1nc2ccccc2c(=O)n1-c1ccc2ccccc2c1 (stereo not drawn) [[(3-chlorophenyl)amino]-N-(2-methylpropyl)-N-[(3-(2-naphthyl)-4-oxo(3-hydroquinazolin-2-yl))ethyl]carboxamide]	elevate cellular expression of the ABCA-1 gene
O=C(Nc1cccc(Cl)c1)Nc1ccc2c(c1)CCC2 [[(3-chlorophenyl)amino]-N-indan-5-ylcarboxamide]	elevate cellular expression of the ABCA-1 gene
CCCN(C(=O)Nc1cccc(F)c1)C(C)c1nc2ccccc2c(=O)n1-c1ccc2ccccc2c1 (stereo not drawn) [[(3-fluorophenyl)amino]-N-[(3-(2-naphthyl)-4-oxo(3-hydroquinazolin-2-yl))ethyl]-N-propylcarboxamide]	elevate cellular expression of the ABCA-1 gene
CC(=O)c1ccc(NC(=O)Nc2ccc(Cl)c(Cl)c2)cc1 [[(4-acetylphenyl)amino]-N-(3,4-dichlorophenyl)carboxamide]	elevate cellular expression of the ABCA-1 gene
CCCN(C(=O)Nc1ccc(Br)cc1)C(C)c1nc2ccccc2c(=O)n1-c1ccc2ccccc2c1 (stereo not drawn) [[(4-bromophenyl)amino]-N-[(3-(2-naphthyl)-4-oxo(3-hydroquinazolin-2-yl))ethyl]-N-propylcarboxamide]	elevate cellular expression of the ABCA-1 gene
CC(C)CN(C(=O)Nc1ccc(Cl)cc1)C(C)c1nc2ccccc2c(=O)n1-c1ccc2ccccc2c1 (stereo not drawn) [[(4-chlorophenyl)amino]-N-(2-methylpropyl)-N-[(3-(2-naphthyl)-4-oxo(3-hydroquinazolin-2-yl))ethyl]carboxamide]	elevate cellular expression of the ABCA-1 gene
O=C(Nc1ccc(Cl)cc1)NC1CCCCC1 [[(4-chlorophenyl)amino]-N-cyclohexylcarboxamide]	elevate cellular expression of the ABCA-1 gene
Cc1ccc(NC(=O)N(CC(C)C)C(C)c2nc3ccccc3c(=O)n2-c2ccc3ccccc3c2)cc1 (stereo not drawn) [[(4-methylphenyl)amino]-N-(2-methylpropyl)-N-[(3-(2-naphthyl)-4-oxo(3-hydroquinazolin-2-yl))ethyl]carboxamide]	elevate cellular expression of the ABCA-1 gene
CCCCCc1ccc(NC(=O)NC2=NCCS2)cc1 [[(4-pentylphenyl)amino]-N-(1,3-thiazolin-2-yl)carboxamide]	elevate cellular expression of the ABCA-1 gene
O=C(NCC1CCCCC1)Nc1ccc2c(c1)CCC2 [[(cyclohexylmethyl)amino]-N-indan-5-ylcarboxamide]	elevate cellular expression of the ABCA-1 gene
CCOc1ccc2nc(NC(=O)NC(C)(C)C)sc2c1 [[t-butylamino]-N-(6-ethoxybenzothiazol-2-yl)carboxamide]	elevate cellular expression of the ABCA-1 gene
O=C(Nc1ccc(F)cc1F)c1cc2ccccc2s1 [benzo[b]thiophen-2-yl-N-(2,4-difluorophenyl)carboxamide]	elevate cellular expression of the ABCA-1 gene
O=C(Nc1nc2c(Cl)cccc2s1)c1cc2ccccc2s1 [benzo[b]thiophen-2-yl-N-(4-chlorobenzothiazol-2-yl)carboxamide]	elevate cellular expression of the ABCA-1 gene
O=C(Nc1nc2ccccc2s1)c1cc2ccccc2s1 [benzo[b]thiophen-2-yl-N-benzothiazol-2-ylcarboxamide]	elevate cellular expression of the ABCA-1 gene
Cc1cc(C(=O)c2cc3ccccc3o2)ccc1Cl [benzo[d]furan-2-yl 4-chloro-3-methylphenyl ketone]	elevate cellular expression of the ABCA-1 gene
COc1cccc(Nc2nc3ccccc3s2)c1 [benzothiazol-2-yl-(3-methoxyphenyl)amine]	elevate cellular expression of the ABCA-1 gene
O=C(Nc1ncc(-c2ccccc2)s1)C1CCCCC1 [cyclohexyl-N-(5-phenyl(1,3-thiazol-2-yl))carboxamide]	elevate cellular expression of the ABCA-1 gene
O=C(Nc1nc(-c2ccc3ccccc3c2)cs1)C1CCCC1 [cyclopentyl-N-(4-(2-naphthyl)(1,3-thiazol-2-yl))carboxamide]	elevate cellular expression of the ABCA-1 gene
O=C(Nc1ncc(-c2ccccc2)s1)C1CCCC1 [cyclopentyl-N-(5-phenyl(1,3-thiazol-2-yl))carboxamide]	elevate cellular expression of the ABCA-1 gene
O=C(Nc1nc(-c2ccccc2)ns1)C1CC1 [cyclopropyl-N-(3-phenyl(1,2,4-thiadiazol-5-yl))carboxamide]	elevate cellular expression of the ABCA-1 gene
